Test system: SUM149PT spheroids with HUVEC/MSC, viability
Test: Anticancer human tumor SUM149PT cell line growth inhibition [GQUAD];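 further: spheroids exposed to drugs for seven days before readout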;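 on viability, T/C: percent viability relative to DMSO vehicle control taken as 100%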
Conditions: for IC50: curve of first compound; for viability, T/C: stronger effect = lower value; active means viability on the fitted dose curve at most 10% of control; inactive means the rest
Summary of the method: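 Tumor cells were grown as complex spheroids with HUVEC endothelial cells and mesenchymal stem cells as stroma. G-quadruplex stabilizers were combined with targeted agents over half-log dilutions from near the clinical Cmax, or from 10 microM.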

[1] = second compound 0.0316 µM, first compound 0.0316 µM
[2] = second compound 0.0316 µM, first compound 0.1 µM
[3] = second compound 0.0316 µM, first compound 0.316 µM
[4] = second compound 0.0316 µM, first compound 1 µM
[5] = second compound 0.0316 µM, first compound 3.16 µM
[6] = second compound 0.0316 µM, first compound 10 µM
[7] = second compound 0.1 µM, first compound 0.0316 µM
[8] = second compound 0.1 µM, first compound 0.1 µM
[9] = second compound 0.1 µM, first compound 0.316 µM
[10] = second compound 0.1 µM, first compound 1 µM
[11] = second compound 0.1 µM, first compound 3.16 µM
[12] = second compound 0.1 µM, first compound 10 µM
[13] = second compound 0.316 µM, first compound 0.0316 µM
[14] = second compound 0.316 µM, first compound 0.1 µM
[15] = second compound 0.316 µM, first compound 0.316 µM
[16] = second compound 0.316 µM, first compound 1 µM
[17] = second compound 0.316 µM, first compound 3.16 µM
[18] = second compound 0.316 µM, first compound 10 µM
[19] = second compound 1 µM, first compound 0.0316 µM
[20] = second compound 1 µM, first compound 0.1 µM
[21] = second compound 1 µM, first compound 0.316 µM
[22] = second compound 1 µM, first compound 1 µM
[23] = second compound 1 µM, first compound 3.16 µM
[24] = second compound 1 µM, first compound 10 µM
[25] = second compound 3.16 µM, first compound 0.0316 µM
[26] = second compound 3.16 µM, first compound 0.1 µM
[27] = second compound 3.16 µM, first compound 0.316 µM
[28] = second compound 3.16 µM, first compound 1 µM
[29] = second compound 3.16 µM, first compound 3.16 µM
[30] = second compound 3.16 µM, first compound 10 µM
[31] = second compound 10 µM, first compound 0.0316 µM
[32] = second compound 10 µM, first compound 0.1 µM
[33] = second compound 10 µM, first compound 0.316 µM
[34] = second compound 10 µM, first compound 1 µM
[35] = second compound 10 µM, first compound 3.16 µM
[36] = second compound 10 µM, first compound 10 µM

C#Cc1c(F)ccc2cc(O)cc(-c3ncc4c(N5CC6CCC(C5)N6)nc(OCC56CCCN5CC(F)C6)nc4c3F)c12 (stereo not drawn) + Cc1[nH]c2ccc(F)cc2c1-c1nc2c3cccnc3c3ncccc3c2[nH]1
4720 nM: IC50 (second compound 0.0316 µM)
inactive: viability, T/C [1] 103% | viability, T/C [2] 96.5% | viability, T/C [3] 93% | viability, T/C [4] 72% | viability, T/C [5] 57.6% | viability, T/C [6] 38.4% | viability, T/C [7] 106% | viability, T/C [8] 98.9% | viability, T/C [9] 94.7% | viability, T/C [10] 87.2% | viability, T/C [11] 54.8% | viability, T/C [12] 44.2% | viability, T/C [13] 110% | viability, T/C [14] 96.5% | viability, T/C [15] 83.8% | viability, T/C [16] 74.6% | viability, T/C [17] 48.5% | viability, T/C [18] 37% | viability, T/C [19] 95% | viability, T/C [20] 90% | viability, T/C [21] 87.3% | viability, T/C [22] 76.5% | viability, T/C [23] 55.9% | viability, T/C [24] 42.6% | viability, T/C [25] 96.9% | viability, T/C [26] 85.2% | viability, T/C [27] 83.7% | viability, T/C [28] 76.2% | viability, T/C [29] 52.9% | viability, T/C [30] 45% | viability, T/C [31] 102% | viability, T/C [32] 82.3% | viability, T/C [33] 88.2% | viability, T/C [34] 60.2% | viability, T/C [35] 52.2% | viability, T/C [36] 35.6%
5610 nM: IC50 (second compound 3.16 µM)
5380 nM: IC50 (second compound 1 µM)
3430 nM: IC50 (second compound 10 µM)
5520 nM: IC50 (second compound 0.1 µM)
3770 nM: IC50 (second compound 0.316 µM)

CCCS(=O)(=O)Nc1ccc(F)c(C(=O)c2c[nH]c3ncc(-c4ccc(Cl)cc4)cc23)c1F + Cc1[nH]c2ccc(F)cc2c1-c1nc2c3cccnc3c3ncccc3c2[nH]1
9080 nM: IC50 (second compound 1 µM)
7250 nM: IC50 (second compound 10 µM)
8190 nM: IC50 (second compound 3.16 µM)
> 10000 nM: IC50 (second compound 0.0316 µM) | IC50 (second compound 0.1 µM) | IC50 (second compound 0.316 µM)
inactive: viability, T/C [1] 107% | viability, T/C [2] 97.7% | viability, T/C [3] 109% | viability, T/C [4] 101% | viability, T/C [5] 74.7% | viability, T/C [6] 53.3% | viability, T/C [7] 102% | viability, T/C [8] 105% | viability, T/C [9] 102% | viability, T/C [10] 99.8% | viability, T/C [11] 82.6% | viability, T/C [12] 54.9% | viability, T/C [13] 110% | viability, T/C [14] 104% | viability, T/C [15] 105% | viability, T/C [16] 102% | viability, T/C [17] 78.9% | viability, T/C [18] 51.2% | viability, T/C [19] 103% | viability, T/C [20] 107% | viability, T/C [21] 105% | viability, T/C [22] 105% | viability, T/C [23] 79.6% | viability, T/C [24] 47.3% | viability, T/C [25] 98.3% | viability, T/C [26] 92.7% | viability, T/C [27] 102% | viability, T/C [28] 109% | viability, T/C [29] 71.3% | viability, T/C [30] 45.6% | viability, T/C [31] 98.1% | viability, T/C [32] 104% | viability, T/C [33] 102% | viability, T/C [34] 105% | viability, T/C [35] 74.6% | viability, T/C [36] 40.4%

Cc1[nH]c2ccccc2c1CCNCc1ccc(/C=C/C(=O)NO)cc1 + Cc1[nH]c2ccc(F)cc2c1-c1nc2c3cccnc3c3ncccc3c2[nH]1
inactive: viability, T/C (second compound 0.0316 µM, first compound 0.000999 µM) 98% | viability, T/C (second compound 0.0316 µM, first compound 0.00316 µM) 99.6% | viability, T/C (second compound 0.0316 µM, first compound 0.00999 µM) 103% | viability, T/C [1] 102% | viability, T/C (second compound 0.0316 µM, first compound 0.0999 µM) 98% | viability, T/C [3] 40.3% | viability, T/C (second compound 0.1 µM, first compound 0.000999 µM) 101% | viability, T/C (second compound 0.1 µM, first compound 0.00316 µM) 97.5% | viability, T/C (second compound 0.1 µM, first compound 0.00999 µM) 97.6% | viability, T/C [7] 97.2% | viability, T/C (second compound 0.1 µM, first compound 0.0999 µM) 90.6% | viability, T/C [9] 50.3% | viability, T/C (second compound 0.316 µM, first compound 0.000999 µM) 108% | viability, T/C (second compound 0.316 µM, first compound 0.00316 µM) 107% | viability, T/C (second compound 0.316 µM, first compound 0.00999 µM) 98% | viability, T/C [13] 106% | viability, T/C (second compound 0.316 µM, first compound 0.0999 µM) 87.6% | viability, T/C [15] 47.8% | viability, T/C (second compound 1 µM, first compound 0.000999 µM) 106% | viability, T/C (second compound 1 µM, first compound 0.00316 µM) 96.6% | viability, T/C (second compound 1 µM, first compound 0.00999 µM) 93.6% | viability, T/C [19] 105% | viability, T/C (second compound 1 µM, first compound 0.0999 µM) 97.4% | viability, T/C [21] 48.3% | viability, T/C (second compound 3.16 µM, first compound 0.000999 µM) 96.8% | viability, T/C (second compound 3.16 µM, first compound 0.00316 µM) 89.4% | viability, T/C (second compound 3.16 µM, first compound 0.00999 µM) 81.4% | viability, T/C [25] 93.3% | viability, T/C (second compound 3.16 µM, first compound 0.0999 µM) 89.4% | viability, T/C [27] 49.1% | viability, T/C (second compound 10 µM, first compound 0.000999 µM) 99.1% | viability, T/C (second compound 10 µM, first compound 0.00316 µM) 88% | viability, T/C (second compound 10 µM, first compound 0.00999 µM) 89.4% | viability, T/C [31] 88.5% | viability, T/C (second compound 10 µM, first compound 0.0999 µM) 82.2% | viability, T/C [33] 41.4%
> 316 nM: IC50 (second compound 0.1 µM)
308 nM: IC50 (second compound 3.16 µM)
250 nM: IC50 (second compound 10 µM)
304 nM: IC50 (second compound 1 µM)
260 nM: IC50 (second compound 0.0316 µM)
299 nM: IC50 (second compound 0.316 µM)

O=C(NO)c1cnc(N2CCN(S(=O)(=O)c3ccc4ccccc4c3)CC2)nc1 + Cc1[nH]c2ccc(F)cc2c1-c1nc2c3cccnc3c3ncccc3c2[nH]1
381 nM: IC50 (second compound 0.0316 µM)
inactive: viability, T/C [1] 100% | viability, T/C [2] 97.1% | viability, T/C [3] 59.4% | viability, T/C [7] 102% | viability, T/C [8] 102% | viability, T/C [9] 67.8% | viability, T/C [13] 104% | viability, T/C [14] 101% | viability, T/C [15] 78% | viability, T/C [16] 17.8% | viability, T/C [19] 105% | viability, T/C [20] 98.1% | viability, T/C [21] 78.8% | viability, T/C [22] 30.1% | viability, T/C [25] 107% | viability, T/C [26] 101% | viability, T/C [27] 74.2% | viability, T/C [28] 38.8% | viability, T/C [31] 106% | viability, T/C [32] 93.5% | viability, T/C [33] 79.4% | viability, T/C [34] 47.4%
450 nM: IC50 (second compound 0.1 µM)
539 nM: IC50 (second compound 0.316 µM)
617 nM: IC50 (second compound 1 µM)
660 nM: IC50 (second compound 3.16 µM)
801 nM: IC50 (second compound 10 µM)
active: viability, T/C [4] 1.37% | viability, T/C [5] 0.22% | viability, T/C [6] 2.18% | viability, T/C [10] 9.4% | viability, T/C [11] 0.18% | viability, T/C [12] 0.21% | viability, T/C [17] 0.15% | viability, T/C [18] 1.25% | viability, T/C [23] 0.16% | viability, T/C [24] 0.2% | viability, T/C [29] 0.2% | viability, T/C [30] 0.4% | viability, T/C [35] 0.29% | viability, T/C [36] 0.25%

From PubChem BioAssay AID2060484 (Molecular Pharmacology Branch, DTP, NCI, 2025)
